Where two headings read alike, the source gives them in different places.
Experiments:
MDCK = conditions: read-out: IC50, cytotoxicity MDCK; MTT method; cited from earlier work
HEp-2 = conditions: read-out: IC50, cytotoxicity HEp-2; MTT method; cited from earlier work
MDCK cells = conditions: cited from earlier work
FluV A [1] = conditions: read-out: EC50, FluV A; MTT method; cited from earlier work
PfluV 2 = conditions: cited from earlier work; for EC50: read-out: EC50, PfluV 2, MTT method
FluV A (H1N1/PR8) = conditions: cited from earlier work
RSV-B (SM-61-48) = conditions: read-out: EC50, RSV-B (SM-61-48); MTT method; data from one experiment; cited from earlier work
HMV-2 = conditions: read-out: IC50, cytotoxicity HMV-2; MTT method; cited from earlier work
RSV [2] = conditions: read-out: EC50, RSV; MTT method; cited from earlier work
Vero = conditions: read-out: IC50, cytotoxicity Vero; MTT method; cited from earlier work
DFV = conditions: read-out: EC50, DFV; MTT method; cited from earlier work
CDV = conditions: cited from earlier work; for EC50: read-out: EC50, CDV, plaque reduction method
FIPV = assay type: cell-based, feline infectious peritonitis virus; conditions: read-out: EC50, FIPV
TGEV = assay type: cell-based, transmissible gastroenteritis virus of swine; conditions: read-out: EC50, TGEV
FluV [3] = conditions: given either orally or intraperitoneally; cited from earlier work
HIV-1 = conditions: read-out: EC50, HIV-1; MTT method; cited from earlier work
[4] = test system: FluV A binding to MDCK cells; conditions: 8–200 μM of compound during 1.5 hour incubation at 37 °C, moi 1; cited from earlier work
FluV A [5] = conditions: read-out: EC50 against FluV A; cited from earlier work
SARS-V = assay type: cell-based, SARS coronavirus; conditions: read-out: EC50, SARS-V
CXCR4 = conditions: monoclonal mouse antibody; cited from earlier work
HIV = conditions: read-out: EC50, anti-HIV, MAGI test; HeLa CD4/LTR-β-Gal cells; cited from earlier work
gp-120 = conditions: polyclonal mouse antibody; cited from earlier work
[6] = test system: syncytium formation between MOLT-4 cells (uninfected cells) and MOLT-4/IIIb cells (infected cells); conditions: MOLT-4 and MOLT-4/IIIb cells; cited from earlier work
CD4 = conditions: mouse antibody; cited from earlier work
RSV [7] = conditions: cited from earlier work
[8] = test system: ortho- and paramyxoviruses, herpesviruses and retroviruses (HIV-1 and 2); conditions: cited from earlier work
FluV-A [9] = conditions: read-out: EC50 against FluV-A; compound present 1.5–3 hours; cited from earlier work
RSV [10] = conditions: HeLa cells; compound after virus adsorption; cited from earlier work
FluV-A [11] = conditions: cited from earlier work
RSV-A [12] = conditions: read-out: EC50 against RSV-A; compound present 1.5–3 hours; cited from earlier work
FluV [13] = conditions: data not shown; cited from earlier work
RSV-A [14] = conditions: cited from earlier work

In the case of NC(=O)c1ncn([C@@H]2O[C@H](CO)[C@@H](O)[C@H]2O)n1 [Ribavirin, reference compound], the IC50 (MDCK) is listed as over 200 µM, the IC50 (HEp-2) is listed as 52.7 µM and the “Percent viability of cells” value (MDCK cells; single compound at 100 μM, untreated cells = 100%) is listed as 107.2 ± 1.7%. For the same molecule, the “Percent viability of cells” value (MDCK cells; single compound at 200 μM) was 104.8 ± 3.8%, the “Percent viability of cells” value (MDCK cells; single compound at 400 μM) was 102.8 ± 4.1% and the EC50 (FluV A [1]) was 5 ± 2.8 µM. The EC50 (PfluV 2) was 14 ± 4.8 µM, the “appearance of lungs of infected mice” value (FluV A (H1N1/PR8); 40 mM ribavirin alone, data not shown) was “swollen and reddened due to congestion” and the “mice survived on the 9th day” value (FluV A (H1N1/PR8); 80 mM ribavirin aerosol every 12 hours for 4 days) was 60%. For the same molecule, the “survival at 14 days after the infection” value (FluV A (H1N1/PR8); 80 mM ribavirin alone) was 30%, the EC50 (RSV-B (SM-61-48)) was 1.6 µM and the IC50 (HMV-2) was over 100 µM. The EC50 (RSV [2]) was 3900 ± 3100 nM, the IC50 (Vero) was 100 µM and the EC50 (DFV) was over 100 µM. For the same molecule, the EC50 (CDV) was 74 ± 35 µM.
Molecule “(NBu4)4(PriNH3) [PTi2W10O38(O2)2]2H2O [PM-803]” has an EC50 (FIPV) of over 21000 nM and an EC50 (TGEV) of 340 ± 300 nM.
For Ce2H[BW11Mn(H2O)O39] [HPB-2], the “therapeutic effect against FluV infection in mice” value (FluV [3]) is listed as “potent therapeutic effect”.
For K5[SiVW11O40] [PM-43], the EC50 (HIV-1) is listed as 300 ± 120 nM, the EC50 (FluV A [1]) is listed as 8.4 ± 6.5 µM and the “antiviral activity against PfluV 2” value (PfluV 2) is listed as “did not have antiviral activities”. The EC50 (PfluV 2) was over 100 µM, the EC50 (RSV [2]) was 1600 nM and the EC50 (DFV) was 10.7 ± 6.7 µM. The EC50 (CDV) was 7.5 ± 1 µM.
In the case of K7[BVW11O40] [PM-47], the EC50 (HIV-1) is listed as 30 ± 10 nM, the EC50 (FluV A [1]) is listed as 11.5 ± 0.6 µM and the EC50 (PfluV 2) is listed as 67.1 µM. For the same molecule, the EC50 (RSV [2]) was 29000 nM, the EC50 (DFV) was 10.5 ± 6.9 µM and the EC50 (CDV) was 6 ± 0.6 µM.
For K9H6(Ge2Ti6W18O77)16H2O [PM-504], the “inhibition of the binding of FluV to MDCK cells (FACS)” value [4] is listed as “inhibited the binding”, the EC50 (FIPV) is listed as 400 ± 300 nM and the EC50 (FluV A [5]) is listed as 1300 nM. The EC50 (SARS-V) was 3500 ± 2400 nM and the EC50 (TGEV) was 1400 ± 500 nM.
In the case of K10Na[(VO)3(SbW9O33)2]26H2O [PM-1001], the EC50 (HIV-1) is listed as 140 ± 170 nM, the EC50 (FluV A [1]) is listed as 1.75 ± 1.6 µM and the “inhibition of binding of anti-CRCX4 antibody to its target molecule” value (CXCR4) is listed as “did not inhibit”. For the same molecule, the EC50 (HIV) was 10 nM, the EC50 (PfluV 2) was 1.1 ± 0.9 µM and the “inhibition of binding of anti-gp120 antibody to gp-120” value (gp-120) was “inhibited”. The “inhibition of syncytium formation” value [6] was “inhibited syncytium formation”, the EC50 (FIPV) was 200 ± 100 nM and the EC50 (SARS-V) was 700 ± 400 nM. For the same molecule, the EC50 (TGEV) was 140 ± 100 nM, the EC50 (RSV [2]) was under 160 nM and the EC50 (CDV) was 5.7 ± 0.5 µM. For the same molecule, the “inhibition of binding of anti-CD4 antibody to its target molecule” value (CD4) was “did not inhibit”.
For K11H[(VO)3(SbW9O33)2]27H2O [PM-1002], the EC50 (HIV-1) is given as 30 ± 10 nM, the EC50 (FluV A [1]) is given as 4 ± 1.7 µM and the EC50 (HIV) is given as 18 nM. For the same molecule, the EC50 (PfluV 2) was 0.75 ± 0.05 µM, the “inhibition of syncytium formation” value [6] was “inhibited syncytium formation” and the EC50 (SARS-V) was 250 ± 70 nM. The EC50 (TGEV) was 600 ± 400 nM, the EC50 (RSV [2]) was 750 ± 50 nM and the EC50 (DFV) was 2 ± 1.4 µM. The EC50 (CDV) was 2.8 ± 1 µM.
In the case of K12Nb6P2W12O62 [HS-158], the IC50 (MDCK) is given as 164 µM, the IC50 (HEp-2) is given as 82.7 µM and the EC50 (RSV-B (SM-61-48)) is given as 2.7 µM. The IC50 (HMV-2) was 53.7 µM and the IC50 (Vero) was over 200 µM.
K12[(VO)3(AsW9O33)2]12H2O [PM-1207] gave an EC50 (FIPV) of 90 ± 40 nM, an EC50 (SARS-V) of 900 ± 240 nM and an EC50 (TGEV) of 1900 ± 1400 nM.
Molecule K12[(VO)3(BiW9O33)2]29H2O [PM-1208] has an EC50 (FIPV) of over 3600 nM, an EC50 (SARS-V) of 2700 ± 600 nM and an EC50 (TGEV) of 2000 ± 1800 nM.
With K12[(VO)3(PW9O34)2]nH2O [PM-1213] the EC50 (FIPV) was over 10500 nM, the EC50 (SARS-V) was 470 ± 140 nM and the EC50 (TGEV) was 1700 ± 1000 nM.
“Na7H9{Eu3O(OH)3(H2O)3}2Al2(Nb6O19)5}47H2O [PM-802]” showed an EC50 (FIPV) of 30 ± 10 nM, an EC50 (SARS-V) of over 50000 nM and an EC50 (TGEV) of 500 ± 500 nM.
For [(Me3NH)8Si2W18Nb6O77]nH2O [HS-106], the IC50 (MDCK) is listed as over 200 µM, the IC50 (HEp-2) is listed as over 200 µM and the anti-RSV activity (RSV [7]) is listed as “most potent and selective anti-RSV activity”. The EC50 (RSV-B (SM-61-48)) was 4.5 µM, the IC50 (HMV-2) was 20.7 µM and the antiviral activity [8] was “broad spectrum antiviral activity”. The IC50 (Vero) was 148 µM.
For [Et2NH2]7[PTi2W10O40] [PM-518], the EC50 (HIV-1) is listed as 2000 ± 800 nM, the EC50 (FluV A [1]) is listed as 62 ± 27 µM and the EC50 (PfluV 2) is listed as 53 ± 39 µM. For the same molecule, the EC50 (FIPV) was over 32900 nM, the EC50 (SARS-V) was over 50000 nM and the EC50 (TGEV) was 2100 ± 1100 nM. For the same molecule, the EC50 (RSV [2]) was 26500 nM, the EC50 (DFV) was 36.8 ± 3 µM and the “antiviral activity against CDV” value (CDV) was “did not have antiviral activities”. The EC50 (CDV) was over 50 µM.
In the case of [K10Fe4(H2O)2 (PW9O34)2]nH2O [HS-058], the IC50 (MDCK) is given as over 200 µM, the EC50 (FluV-A [9]) is given as over 31 µM and the IC50 (HEp-2) is given as over 200 µM. For the same molecule, the “concentration inhibiting syncytium formation of RSV” value (RSV [10]) was 8.5 µM, the “Inhibition of RNA and protein synthesis” value (FluV-A [11]) was “Probably no” and the “Inhibition of fusion between infected and uninfected cells” value (FluV-A [11]) was “Unclear”. For the same molecule, the EC50 (RSV-B (SM-61-48)) was 3.1 µM, the IC50 (HMV-2) was 50 µM and the EC50 (RSV-A [12]) was over 20 µM. For the same molecule, the “concentration inhibiting hemolysis of chicken erythrocytes by FluV” value (FluV [13]) was 58 µM, the IC50 (Vero) was 50 µM and the “Inhibition of RNA and protein synthesis” value (RSV-A [14]) was “Probably no”. The “Inhibition of fusion of virus envelope and cell membrane” value (RSV-A [14]) was “Unclear”.
For “[NH4]12H(BiW9O33)3Bi6(OH)3(H2O)3V4H10]25H2O [PM-1210]”, the EC50 (FIPV) was 740 ± 400 nM, the EC50 (SARS-V) was 760 ± 300 nM and the EC50 (TGEV) was 1600 ± 1100 nM.
In the case of [Na16Fe4(H2O)2(P2W15O56)2]nH2O [HS-054], the IC50 (MDCK) is listed as over 200 µM, the IC50 (HEp-2) is listed as 88 µM and the EC50 (RSV-B (SM-61-48)) is listed as 7.8 µM. For the same molecule, the IC50 (HMV-2) was over 200 µM and the IC50 (Vero) was 50 µM.
For [Pri2NH2]5[PTiW11O40] [PM-520], the EC50 (HIV-1) is given as 2000 ± 500 nM, the EC50 (FluV A [1]) is given as 45 ± 26 µM and the EC50 (PfluV 2) is given as 23 ± 2.4 µM. For the same molecule, the EC50 (FIPV) was 760 ± 500 nM, the EC50 (SARS-V) was 4900 ± 1400 nM and the EC50 (TGEV) was 1400 ± 1300 nM. For the same molecule, the EC50 (RSV [2]) was 740 ± 600 nM, the EC50 (DFV) was 11.7 ± 7.1 µM and the EC50 (CDV) was 7.4 ± 0.4 µM.
